“Also recorded” adds a separate entry of the source. Like-named read-outs stand apart in the source and are kept apart here.
Assays:
MBP-E6 = biological target: T1, MBP-E6 (Human papillomavirus type 16, UniProt P03126); test: thermal shift (Sypro Orange) assay; type: binding, HPV-16; details: versus DMSO; for effect on Tm of MBP-E6: 5-150 µM tested
T1 construct: made in house; host or cells: E. coli BL21DE(3)
Method: A thermal shift assay was used to assess compound binding to HPV E6. In this reaction, protein denaturation is measured by an increase in fluorescence from Sypro Orange as it binds to the newly exposed hydrophobic surfaces on the protein [48]. A protein stability curve is created as a measure of the rate of protein unfolding. The relative fluorescence is plotted against temperature and the melting temperature (Tm) is determined by calculating the temperature of peak fluorescence. Ligand binding can stabilize the protein and increase the Tm. The thermal profile of MBP-E6 proteins was investigated to determine if the flavonoid derivatives could stabilize MBP-E6 protein structure during heat-induced unfolding. […] The change in Tm (∆Tm) was plotted for each compound and compared to DMSO (Figure 10F,G ).
MBP-16E6 DNA, a kind gift from G. Travé [58], was transformed into BL21DE(3) E. coli. Protein expression was performed by inoculation of a 1 mL starter culture in 100 mL of Turbo-Broth containing 0.2 % lactose, 0.05% glucose and 0.6% glycerol at 20°C for 24 hrs. Cells were lysed in 50 mM Tris HCl pH 6.8, 300 mM NaCl, 0.1 % (v/v) NP-40, 2 mM DTT and 1x protease inhibitor cocktail (EDTA-free, Roche) and sonicated as described before. Cell lysate was cleared by centrifugation at 15000xg, 4°C for 30 min and equilibrated with amylose resin beads (New England Biolabs, Inc.) by inversion for 3 hrs at 4°C. Bound beads were washed one time in lysis buffer and four times with wash buffer (50 mM Tris-HCl pH 6.8, 400 mM NaCl, 2 mM DTT, 1x protease inhibitor cocktail). Bound MBP-E6 proteins were eluted using a final concentration of 20 mM maltose in 5 bed volumes of wash buffer. All steps were performed at 4°C. Protein concentration was measured by BCA (BioRad). Thermostability of MBP-E6 proteins was analyzed at a final concentration of 1 µM in reaction buffer (50 mM TrisHCl pH 6.8, 400 mM NaCl, 2 mM DTT). MBP-E6 proteins were equilibrated with CAF-8 (5 µM-150 µM), CAF-24 (5 µM-150 µM), CAF-26 (5 µM-150 µM) or DMSO for 30 min in reaction buffer. Sypro Orange, a hydrophobic fluorescent dye, was added at the end of the incubation period at a final concentration of 5X. The final DMSO concentration (1.8% v/v) was kept constant across the concentration range. Fluorescence was measured using the FRET channel of CFX96 Real-Time PCR thermal cycler (BioRad) over a temperature range of 25°C to 95°C. Temperature increments were set to 0.5°C for 30 sec followed by plate reading. Melt curves were determined in triplicate and repeated four times. Melt curves represent the relative fluorescence of the 1st derivative of four experiments. Melting temperature (Tm) was calculated by CFX manager software. The average melting temperature of the triplicate was used to calculate the ∆Tm for each experiment. ∆Tm values are expressed as the change vs. DMSO.

[1] = biological target: T2, interaction between GST-E6 and three PDZ domains of hDlg fused to BAP (hDlg-BAP) (Human papillomavirus type 16, UniProt P03126); test: E6/hDlg-BAP specificity filter binding assay; parameters: species or system HPV-16
T2 construct: made in house; host or cells: E. coli BL21
Method: (§1) This interaction between E6 and hDlg occurs at the C-terminus of E6 and is independent of the interaction between E6 and the charged leucine helix in E6AP [21, 22].
Pre-Block - 96-well filter plates were prepared (0.2 µm BioTrace NT, Pall). 100µL of blocking buffer (100 mM Tris pH 8.0, 100 mM NaCl, 0.1% milk) was added per well. Plates were blocked for 1 hr at RT on an orbital shaker. Buffer was removed by vacuum filtration using a vacuum manifold. GST-E6 Bead addition – GST-E6 beads were prepared at 5µg/mL in GST-E6 bead buffer (100 mM Tris pH 8.0, 100 mM NaCl, 0.1% milk, 2.5 mM DTT). 100µL of GST-E6 bead mix was added per well and incubated for 1 hr at 4°C. Buffer was removed by vacuum filtration. […] 48 µL of each reagent was added per well. For drug assay, 2µL of compound was added to each well and mixed thoroughly. […] Plates were incubated for 1-3 hours at RT on an orbital shaker. Buffer was removed by vacuum filtration. Plates were washed on the vacuum manifold, first with 200 µL buffer (100 mM Tris pH 8.0, 100 mM NaCl, 1 mM DTT), and twice more with 100µL lysis buffer without DTT. […] 60 µL of Immunostar-AP assay reagent was added, the BAP activity was allowed to develop for 10 minutes and the plates were read on a Wallace Luminometer. BAP activity was measured as relative light units (RLU) on a luminometer using the Immunostar-AP substrate (BioRad).

[2] = biological target: T3, interaction between HPV-16 E6 and E6AP (Human papillomavirus type 16, UniProt P03126); test: biochemical; type: binding; details: for Emax: read-out: Maximal Inhibition; for activity and potency in E6/E6AP binding assay (in words): SAR library, initial 5-point dose range 12.3 µM to 1 mM
T3 construct: made in house; host or cells: E. coli BL21
Method: To characterize potential E6 inhibitors, a robust in vitro assay was developed to measure the interaction between HPV-16 E6 and E6AP. […] The core 70 amino acids of the E6 binding region of E6AP (residues 371-440) was fused to bacterial alkaline phosphatase (BAP) in the MY101 vector [40]. […] Binding efficiency was determined from the intensity of BAP activated chemiluminescence remaining in each well.
Kinetic analysis was performed to characterize the protein-protein interaction inherent in this assay.
The collection of 72 available structural-lead compounds was tested in the filter-plate based in vitro E6-E6AP binding assay. […] Compounds that disrupted the Flag-BAP interaction with the same potency as the HPV-16 E6 and E6AP interaction were classified as non-specific and eliminated from further analysis. […]
Pre-Block - 96-well filter plates were prepared (0.2 µm BioTrace NT, Pall). 100µL of blocking buffer (100 mM Tris pH 8.0, 100 mM NaCl, 0.1% milk) was added per well. Plates were blocked for 1 hr at RT on an orbital shaker. Buffer was removed by vacuum filtration using a vacuum manifold. GST-E6 Bead addition – GST-E6 beads were prepared at 5µg/mL in GST-E6 bead buffer (100 mM Tris pH 8.0, 100 mM NaCl, 0.1% milk, 2.5 mM DTT). 100µL of GST-E6 bead mix was added per well and incubated for 1 hr at 4°C. Buffer was removed by vacuum filtration. […] 48 µL of each reagent was added per well. For drug assay, 2µL of compound was added to each well and mixed thoroughly. […] Plates were incubated for 1-3 hours at RT on an orbital shaker. Buffer was removed by vacuum filtration. Plates were washed on the vacuum manifold, first with 200 µL buffer (100 mM Tris pH 8.0, 100 mM NaCl, 1 mM DTT), and twice more with 100µL lysis buffer without DTT. Plates were cleared and dried with on the vacuum manifold. Assay – Immunostar assay reagent was prepared and equilibrated to RT prior to addition. 60 µL of Immunostar-AP assay reagent was added, the BAP activity was allowed to develop for 10 minutes and the plates were read on a Wallace Luminometer. BAP activity was measured as relative light units (RLU) on a luminometer using the Immunostar-AP substrate (BioRad).

[3] = test system: interaction between anti-FLAG antibody and the FLAG epitope in the E6AP-BAP fusion; test: FLAG/BAP specificity filter binding assay
Method: The collection of 72 available structural-lead compounds was tested in the filter-plate based in vitro E6-E6AP binding assay. Compounds were tested twice at concentrations of 10, 50, and 100 µM. […] Compounds that disrupted the Flag-BAP interaction with the same potency as the HPV-16 E6 and E6AP interaction were classified as non-specific and eliminated from further analysis.
Figure 3 Activity of flavonoids in the in vitro binding assay. Compounds were tested in vitro for the ability to disrupt the E6-E6AP interaction. […] Percent inhibition was determined by the amount of BAP activity remaining in the well after washing and normalized to DMSO. Data was plotted by linear regression for single site binding using Prism (n=3, S.E.M.).
as §1

[4] = solubility in aqueous SPR buffers; type: physicochemical; details: simple aqueous solution
[5] = test system: HPV-16 E6 mediated p53 degradation; test: in vitro HPV-16 E6 mediated p53 degradation assay; type: biochemical
Method: In vitro expressed p53 was incubated in rabbit reticulocyte lysate in the presence or absence of in vitro expressed HPV16 E6. p53 levels were reduced in reaction containing E6 proteins (Figure 8 ).
Control reactions (no DNA, p53 alone) were incubated with 1 µL wheat germ extract and 2% DMSO in reaction buffer. In vitro translated p53 and rabbit reticulocyte lysate (RRL, Promega) were added to all reactions except the no DNA control reaction to which wheat germ extract was added instead of p53. Reactions were incubated for 3 hrs at 30°C and stopped by addition of 6X reducing SDS sample buffer and heating at 95°C for 5 min. Each reaction was loaded onto a 10% SDS-PAGE gel and transferred onto PVDF (0.45 µm). p53 and 16E6 were visualized using monoclonal p53 (Pab1801, 1:1000), monoclonal 16E6 (813, Arbor Vita Corporation, 1:4000) antibody and anti-mouse HRP-labeled secondary antibody (1:2000, Sigma-Aldrich).

[6] = biological target: T4, GST-HPV-16 E6 (human papillomavirus type 16), P03126; test: filter plate bead binding assay (BAP chemiluminescence); competition: peptide added to bead-bound GST-E6 and free E6AP-BAP; 1 hour incubations
T4 chain: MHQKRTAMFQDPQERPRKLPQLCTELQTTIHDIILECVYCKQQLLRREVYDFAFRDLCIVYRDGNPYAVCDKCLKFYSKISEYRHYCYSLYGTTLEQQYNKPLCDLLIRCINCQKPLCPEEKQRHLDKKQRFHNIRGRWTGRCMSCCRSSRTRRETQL

[7] = in silico leads retested in duplicate at 5 concentrations 5 to 250 µM

O=c1cc(-c2ccccc2)oc2ccc(-c3nnn[nH]3)cc12 [CAF-26]
effect on Tm of MBP-E6 (MBP-E6): about 1 °C
shift of MBP-E6 Tm (MBP-E6; at 25, 50 and 150 µM): ~1 °C
specificity against hDlg control binding reaction [1]: increased specificity against the FLAG and hDlg control binding reactions
IC50 [2]: 5.1 µM
IC50 ([2]; full 7-point dose response, 0.5 µM to 333 µM, quadruplicate): low micromolar IC50 values
Emax [2]: 97%
non-specific inhibition / specificity in FLAG-E6AP control assay [3]: increased specificity against the FLAG and hDlg control binding reactions
aqueous solubility (in words) [4]: limited aqueous solubility

CC[C@H](C)[C@H](N)C(=O)N1CCC[C@H]1C(=O)N[C@@H](CCC(=O)O)C(=O)N[C@@H](CO)C(=O)N[C@@H](CO)C(=O)N[C@@H](CCC(=O)O)C(=O)N[C@@H](CC(C)C)C(=O)N[C@H](C(=O)N[C@@H](CC(C)C)C(=O)N[C@@H](CCC(N)=O)C(=O)N[C@@H](CCC(=O)O)C(=O)N[C@@H](CC(C)C)C(=O)N[C@@H](CC(C)C)C(=O)NCC(=O)N[C@@H](CCC(=O)O)C(=O)N[C@@H](CCC(=O)O)C(=O)N[C@@H](CCCNC(=N)N)C(=O)N[C@@H](CCCNC(=N)N)C(=O)O)[C@@H](C)O [E6AP 18-mer, reference compound]
inhibition at 100 µM ([2]; read-out: inhibition of binding): 95%

O=c1cc(-c2ccc(O)c(O)c2)oc2cccc(O)c12 [CAF-13]
increase of IC50 relative to luteolin [2]: 15-30 fold

COc1cc(O)cc2oc(-c3ccc(O)c(O)c3)cc(=O)c12 [CAF-10]
activity and potency in E6/E6AP binding assay (in words) [2]: same potency and activity as luteolin

COc1cc(OC)c2c(=O)cc(-c3ccc(OC)c(OC)c3)oc2c1 [CAF-8]
effect on Tm of MBP-E6 (MBP-E6): unable to significantly alter MBP-E6 melting temperature; also recorded: no measurable effect
effect on E6 mediated p53 degradation ([5]; 10 µM compound pre-incubated with E6): did not alter E6 mediated p53 degradation
effect on E6 mediated p53 degradation ([5]; 100 µM compound pre-incubated with E6): did not alter E6 mediated p53 degradation
activity and potency in E6/E6AP binding assay (in words) [2]: no activity

O=C(O)c1cccc(-c2ccc3oc(-c4cccc(O)c4)cc(=O)c3c2)c1 [CAF28]
Emax [2]: 75%

COc1ccc(CC2c3c(cc(OC)c(O)c3OC)CCN2C)cc1OC (centres unmarked) [Compound 117]
IC50 [2, 7]: low micromolar IC50 values
non-specific inhibition / specificity in FLAG-E6AP control assay [3]: inhibited binding in the FLAG-E6AP assay

O=c1cc(-c2ccc(O)cc2)oc2cc(O)cc(O)c12 [CAF-14]
increase of IC50 relative to luteolin [2]: 15-30 fold

O=c1cc(-c2ccccc2)oc2ccc(-c3cccc(-c4nnn[nH]4)c3)cc12 [CAF27]
IC50 [2]: 6.9 µM
Emax [2]: 96%

CC(=O)Oc1cc(OC(C)=O)c2c(=O)cc(-c3ccc(OC(C)=O)c(OC(C)=O)c3)oc2c1 [Compound 170]
IC50 [2]: 44 µM
activity and potency in E6/E6AP binding assay (in words) [2]: much lower activity and potency than observed with the initial hit
IC50 [2, 7]: low micromolar IC50 values
non-specific inhibition / specificity in FLAG-E6AP control assay [3]: more selective inhibitor of the E6-E6AP interaction

O=C(O)c1cc(-c2ccc3c(=O)cc(-c4ccccc4)oc3c2)ccc1Cl [CAF31]
IC50 [2]: 62.2 µM
Emax [2]: 86%

COc1ccc(NC2Oc3cc(O)ccc3C=C2C(=O)Nc2cccc(C)n2)cc1OC (centres unmarked) [Compound 160]
IC50 [2, 7]: low micromolar IC50 values
non-specific inhibition / specificity in FLAG-E6AP control assay [3]: inhibited binding in the FLAG-E6AP assay

CC(=O)Oc1cc(OC(C)=O)c2c(=O)c(OC(C)=O)c(-c3ccc(OC(C)=O)c(OC(C)=O)c3)oc2c1 [Compound 168]
IC50 [2]: 44 µM
IC50 [2, 7]: low micromolar IC50 values
non-specific inhibition / specificity in FLAG-E6AP control assay [3]: some non-specific inhibitory activity

COc1ccc(-c2ccc3oc(-c4ccccc4)cc(=O)c3c2)c(OC)c1C(=O)O [CAF29]
IC50 [2]: 12.5 µM
Emax [2]: 75%

O=c1cc(-c2cccc(C(F)(F)F)c2)oc2ccc(-c3nnn[nH]3)cc12 [CAF25]
IC50 [2]: 1.1 µM
Emax [2]: 95%

O=C(O)c1cc(-c2ccc3c(=O)cc(-c4ccccc4)oc3c2)ccc1F [CAF32]
IC50 [2]: 48 µM
Emax [2]: 75%

O=C(O)c1cccc(-c2ccc3c(=O)cc(-c4ccccc4)oc3c2)c1 [CAF30]
IC50 [2]: 47.3 µM
Emax [2]: 84%

IPESSELTLQELLGEERR (modifications not checked) [E6AP 18-mer peptide]
percent inhibition at 100 µM [6]: 95%

Source: PMC3871595, “Structure Based Identification and Characterization of Flavonoids That Disrupt Human Papillomavirus-16 E6 Function” (PLoS ONE, 2013)
